Structures are written as SMILES.

Data set [1] is described as follows: GI S9 stability (Ex. Z), dog intestinal S9. The format is in vitro ADME. The following applies: pooled intestinal S9 fractions; dog intestinal S9, 1.0 mg/mL protein, 2 μM substrate, pH 7.4; read-out: GIS9 DOG T½ (per Ex. Z). On the procedure:
Example Z: GI S9 stability data:
Stock solutions of test compounds in dimethyl sulfoxide (DMSO) having a final concentration of 10 mM were prepared and used in all experiments. Sekisui XenoTech (Kansas City, KS) provided pooled intestinal S9 fractions. All other chemicals were purchased from Sigma-Aldrich (St. Louis, MO) or VWR (West Chester, PA). Internal Standard/Quench (IS/Q) used to stop reactions was 100 nM labetalol in (by volume) methanol (10%) and acetonitrile (90%).
Stability in Intestinal S9 Fractions: Duplicate aliquots of test compound or positive control substrate were added to S9 stock diluted with phosphate buffered saline (137 mM NaCl, 2.7 mM KCl, 10 mM phosphate buffer), pH 7.4, to obtain a protein concentration of 1.0 mg/mL. The metabolic reactions were initiated by the addition of the substrates to the S9 reaction mixture to a final concentration of 2 μM. At 0, 10, 20, 30, 60 and 120 min, 25 μL aliquots of the reaction mixture were transferred to plates containing 225 μl of IS/Q solution. After quenching, the plates were centrifuged at 3000×g for 30 minutes. 150 μL aliquots of each supernatant were dried down then reconstituted with 300 μL water. Aliquots (10 μL) of the prepared samples were analyzed on a Thermo Q-Exactive mass spectrometer as described below.
Liquid Chromatography—Mass Spectrometry: Quantification of test compounds and control substrate was performed by analyte/internal standard peak area ratio (PAR) values measured on a Thermo Q-Exactive mass spectrometer coupled to a Dionex UltiMate 3000 HPLC with a Leap Technologies HTC PAL autosampler. The column used for analysis was a Waters Acquity BEH C18 (1.7 μm particle size, 2.1×50 mm). Mobile phase A consisted of 0.1% (v/v) formic acid in water. Mobile phase B consisted of 0.1% (v/v) formic acid in acetonitrile. Elution of analytes was achieved by a series of linear gradients varying the proportions of A and B. The mass spectrometer was calibrated on a weekly basis and mass tolerance of 5 ppm was used.
Metabolic stabilities in S9 fractions were determined by measuring the rates of disappearance of test compound and positive control substrate.
Data (% of substrate remaining) were plotted on a semi-log scale and fitted using an exponential decline model:
Where Ct—% of substrate remaining at time=t; C0—% of substrate remaining at time=0; t—time; T½—half-life The Half-life (T½) is determined by the following equation: […]
Assuming a first-order reaction, the slope (k) is extrapolated from the aforementioned plotted data.

In data set [2] the test system is Respiratory syncytial virus recombinant with luciferase (RSV-Luc5) in NHBE cells. The data set is described as follows: NHBE RSV-Luc5 384-well Assay (EC50 RSVFLUC NHBE-384, Ex. U). To be noted: human respiratory syncytial virus, 72 h, read-out: EC50 RSV FLUC NHBE 384 (per Ex. U). The data set is classed as cell-based. The text has this: Example U. NHBE RSV-Luc5 384-well Assay (EC50 RSVFLUC NHBE-384)
Normal Human Bronchial Epithelial (NHBE) cells were purchased from Lonza (Walkersville, MD Cat #CC2540) and maintained in BEGM Bronchial Epithelial Cell Growth Medium BulletKit (Lonza CC-3170).
Cells were thawed, expanded, and were used for experiments at passage 2. Respiratory syncytial virus recombinant with luciferase (RSV-Luc5) (≥1×10^7 Infectious Units/ml (IU/ml) determined by TCID50) was purchased from Microbiologics (Saint Cloud, MN). Viral replication was determined in NHBE cells in the following manner.
Compounds are prepared in 100% DMSO in 384-well polypropylene plates (Greiner, Monroe, NC, Cat #784201) with 8 compounds per plate in grouped replicates of 4 at 10 serially diluted concentrations (1:3). The serially diluted compounds were transferred to low dead volume Echo plates (Labcyte, Sunnyvale, CA, Cat #LP-0200).
The test compounds were spotted to 384-well assay plates (Greiner, Monroe, NC, Cat#781091) at 200 nL per well. NHBE cells were harvested and suspended in BEGM Bronchial Epithelial Cell Growth Medium BulletKit and seeded to the pre-spotted assay plates at 5,000 cells per well in 30 μL. RSV-Luc5 virus was diluted in BEGM Bronchial Epithelial Cell Growth Medium BulletKit at 500,000 Infectious Units (IU) per mL and 10 μL per well was added to the assay plates containing cells and compounds, for an MOI of 1. The assay plates were incubated for 3 days at 37° C. and 5% CO2. At the end of incubation, One-Glo reagent (Promega, Madison, WI, Cat #E6120) was prepared. The assay plates and One-Glo reagent were equilibrated to room temperature for at least 15 minutes. 40 μL per well of One-Glo reagent was added and the plates were incubated at room temperature for 15 minutes before reading the luminescence signal on an EnVision multimode plate reader (Perkin Elmer, Waltham, MA). Remdesivir was used as positive control and DMSO was used as negative control. Values were normalized to the positive and negative controls (as 0% and 100% replication, respectively) and data was fitted using non-linear regression analysis by Gilead's dose response tool. The EC50 value for each compound was defined as the concentration reducing the viral replication by 50%.

The test system is the same in data set [3]. The data set is described as follows: NHBE RSV-Luc5 384-well Assay (RSV FLUC NHBE 384 V2, Ex. W). The format is cell-based. The following applies: human respiratory syncytial virus, 72 h, read-out: EC50 RSV FLUC NHBE 384 V2 (per Ex. W). In a few lines:
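NHBE cells (passage 2) seeded at 5,000 cells/well onto pre-spotted compounds, 10-point 1:3 dilutions, then infected with RSV-Luc5 at MOI 1. After 3 days at 37 °C, luciferase luminescence was read with One-Glo. Data normalized to remdesivir (0%) and DMSO (100% replication); EC50 from non-linear regression.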

As usually defined, the EC50 is the midpoint of the concentration-response curve. `CC1(C(=O)OC[C@@]2(C#N)O[C@@H](c3ccc4c(N)ncnn34)[C@H](O)[C@@H]2O)CC1` [Compound 15, ((2R,3S,4R,5S)-5-(4-aminopyrrolo[2,1-f][1,2,4]triazin-7-yl)-2-cyano-3,4-dihydroxytetrahydrofuran-2-yl)methyl 1-methylcyclopropane-1-carboxylate]: the half-life at 2 μM in data set [1] was determined as 789 min. Besides, the EC50 is 8.8 µM in data set [2] and 8.77 µM in data set [3].

`CCC(CC)C(=O)Nc1ncnn2c([C@@H]3O[C@](C#N)(COC(=O)C(CC)CC)[C@@H](O)[C@H]3O)ccc12` [Compound 11, ((2R,3S,4R,5S)-2-cyano-5-(4-(2-ethylbutanamido)pyrrolo[2,1-f][1,2,4]triazin-7-yl)-3,4-dihydroxytetrahydrofuran-2-yl)methyl 2-ethylbutanoate]: in data set [1], the half-life at 2 μM was 95 min. Further, the concentration for a half-maximal effect (EC50) in data set [2] turned out to be 25.2 µM; in data set [3], 24.6 µM.

With `N#C[C@]1(COC(=O)CC2CCC2)O[C@@H](c2ccc3c(N)ncnn23)[C@H](O)[C@@H]1O` [Compound 16, ((2R,3S,4R,5S)-5-(4-aminopyrrolo[2,1-f][1,2,4]triazin-7-yl)-2-cyano-3,4-dihydroxytetrahydrofuran-2-yl)methyl 2-cyclobutylacetate], the half-life at 2 μM in data set [1] stood at 89 min. In addition, the EC50 is 9.53 µM in data set [2] and 8.36 µM in data set [3].

For `N#C[C@]1(COC(=O)C2CCC2)O[C@@H](c2ccc3c(N)ncnn23)[C@H](O)[C@@H]1O` [Compound 8, ((2R,3S,4R,5S)-5-(4-aminopyrrolo[2,1-f][1,2,4]triazin-7-yl)-2-cyano-3,4-dihydroxytetrahydrofuran-2-yl)methyl cyclobutanecarboxylate], the half-life at 2 μM in data set [1] is 10 min. The concentration for a half-maximal effect (EC50) in data set [2] turned out to be 8.79 µM; in data set [3], 10.1 µM.

`CCC(=O)OC[C@@]1(C#N)O[C@@H](c2ccc3c(N)ncnn23)[C@H](O)[C@@H]1O` [Compound 5, ((2R,3S,4R,5S)-5-(4-aminopyrrolo[2,1-f][1,2,4]triazin-7-yl)-2-cyano-3,4-dihydroxytetrahydrofuran-2-yl)methyl propionate]: the half-life at 2 μM in data set [1] turned out to be 114 min. Also, the EC50 in data set [2] was 8.89 µM; in data set [3], 7.78 µM.

On to `CC(C)(C)C(=O)OC[C@@]1(C#N)O[C@@H](c2ccc3c(N)ncnn23)[C@H](O)[C@@H]1O` [Compound 10, ((2R,3S,4R,5S)-5-(4-aminopyrrolo[2,1-f][1,2,4]triazin-7-yl)-2-cyano-3,4-dihydroxytetrahydrofuran-2-yl)methyl pivalate], for which, in data set [1], the half-life at 2 μM was 269 min. The results for the 50% effective concentration (EC50) in data set [2] and in data set [3] were 8.08 µM and 7.87 µM, respectively.

In the case of `Cc1ccc(C(=O)OC[C@@]2(C#N)O[C@@H](c3ccc4c(N)ncnn34)[C@H](O)[C@@H]2O)cc1` [Compound 14, ((2R,3S,4R,5S)-5-(4-aminopyrrolo[2,1-f][1,2,4]triazin-7-yl)-2-cyano-3,4-dihydroxytetrahydrofuran-2-yl)methyl 4-methylbenzoate], the half-life at 2 μM in data set [1] turned out to be 426 min. The EC50 in data set [2] turned out to be 8.82 µM; in data set [3], 9.6 µM.

Consider `N#C[C@]1(COC(=O)C2CCCC2)O[C@@H](c2ccc3c(N)ncnn23)[C@H](O)[C@@H]1O` [Compound 18, ((2R,3S,4R,5S)-5-(4-aminopyrrolo[2,1-f][1,2,4]triazin-7-yl)-2-cyano-3,4-dihydroxytetrahydrofuran-2-yl)methyl cyclopentanecarboxylate], for which the half-life at 2 μM in data set [1] came out at 26 min. Also, the figures for the EC50 in data set [2] and in data set [3] were 8.99 µM and 8.71 µM, respectively.

(Values after patent US20240199676A1, “ANTIVIRAL COMPOUNDS AND METHODS OF MAKING AND USING THE SAME” (Gilead Sciences, Inc., priority 2022, published 2024).)
